Assay results reported in patent publication US9670227B2, “Thienopyrimidine derivatives, a process for their preparation and pharmaceutical compositions containing them” (LES LABORATOIRES SERVIER, priority 2013, dated 2017).
Like-named read-outs stand apart in the source and are kept apart here.

Assays:
[1] = test system: H929 multiple myeloma tumour line; test: In vitro cytotoxicity, Microculture Tetrazolium Assay; assay type: cell-based; conditions: Homo sapiens, NCI-H929, 48 h, H929 cells, 48 hours exposure, read-out: IC50 (μM) MTT H929
Description: The cytotoxicity studies were carried out on the H929 multiple myeloma tumour line.
The cells are distributed onto microplates and exposed to the test compounds for 48 hours.

[2] = test system: AMO-1 multiple myeloma cells; test: Quantification of the cleaved form of PARP in vivo (MSD ELISA, tumour lysates); design: species or system mice (SCID strain); conditions: activation factor: cleaved PARP in treated mice / control mice, AMO-1 xenograft in SCID mice, intraveinous or oral routes
Description: The ability of the compounds of the invention to induce apoptosis, by measuring cleaved PARP levels, is evaluated in a xenograft model of AMO-1 multiple myeloma cells. 1.10^7 AMO-1 cells are grafted sub-cutaneously into immunosuppressed mice (SCID strain). 12 to 14 days after the graft, the animals are treated by intraveinous or oral routes with the various compounds. After treatment, the tumour masses are recovered and lysed, and the cleaved form of PARP is quantified in the tumour lysates.
The quantification is carried out using the “Meso Scale Discovery (MSD) ELISA platform” test, which specifically assays the cleaved form of PARP. It is expressed in the form of an activation factor corresponding to the ratio between the quantity of cleaved PARP in the treated mice divided by the quantity of cleaved PARP in the control mice.

[3] = target: Mcl-1 protein (UniProtKB primary accession number: Q07820) (Homo sapiens, UniProt Q07820); test: Inhibition of Mcl-1 by fluorescence polarisation, Method 1; assay type: binding; conditions: for IC50: read-out: IC50 (M) Mcl-1 FP; for percentage fluorescence polarisation inhibition, Mcl-1 FP: partial inhibitors, @ 10 uM test compound
Chain of Mcl-1 protein (Q07820 whole entry): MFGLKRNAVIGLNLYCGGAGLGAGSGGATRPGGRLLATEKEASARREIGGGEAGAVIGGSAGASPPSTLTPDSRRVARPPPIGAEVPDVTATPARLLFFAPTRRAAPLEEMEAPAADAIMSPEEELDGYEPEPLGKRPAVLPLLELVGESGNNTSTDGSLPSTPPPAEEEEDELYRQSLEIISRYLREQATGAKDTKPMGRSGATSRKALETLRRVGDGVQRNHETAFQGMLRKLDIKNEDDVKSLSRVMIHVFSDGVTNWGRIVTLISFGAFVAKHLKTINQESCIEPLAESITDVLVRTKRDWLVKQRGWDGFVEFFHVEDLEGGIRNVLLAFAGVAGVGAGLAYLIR
Outline: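 Buffer of 10 mM HEPES pH 7.4 with 150 mM NaCl and 0.05% Tween 20 held 5 nM Mcl-1 and 1 nM fluorescein-tagged ligand (final). Compounds were tested as 11-point serial dilutions at 5% final DMSO, and binding was read by FP.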

[4] = fluorescence polarisation test, Method 2 values are underlined in the patent (underlining not visible here)
[5] = fluorescence polarisation, Method 1, or Method 2
[6] = fluorescence polarisation test, Method 1, or Method 2 where the value is underlined (underlining not visible)

Structure (SMILES)	PARP fold [2] [fold]	IC50 [3, 6] [M]	IC50 ([1]; cell viability) [µM]	other results
CCCc1nccc(COc2ccccc2CC(Oc2ncnc3sc(-c4ccc(F)cc4)c(-c4ccc(OCCN5CCN(C)CC5)c(Cl)c4C)c23)C(=O)O)n1 [Example 41, (2R)-2-{[(5Sa)-5-{3-chloro-2-methyl-4-[2-(4-methylpiperazin-1-yl)ethoxy]phenyl}-6-(4-fluorophenyl)thieno[2,3-d]pyrimidin-4-yl]oxy}-3-{2-[(2-propylpyrimidin-4-yl)methoxy]phenyl}propanoic acid]	288.1			IC50 ([1]; MTT): 0.007 µM; IC50 [3, 4]: 2.9e-09 M
COCc1nccc(COc2ccccc2CC(Oc2ncnc3sc(-c4ccc(F)cc4)c(-c4ccc(OCCN5CCN(C)CC5)c(Cl)c4C)c23)C(=O)O)n1 [Example 45, (2R)-2-{[(5Sa)-5-{3-chloro-2-methyl-4-[2-(4-methylpiperazin-1-yl)ethoxy]phenyl}-6-(4-fluorophenyl)thieno[2,3-d]pyrimidin-4-yl]oxy}-3-(2-{[2-(methoxymethyl)pyrimidin-4-yl]methoxy}phenyl)propanoic acid]	194.3			IC50 ([1]; MTT): 0.009 µM; IC50 [3, 4]: 6.7e-09 M
CCOC(=O)[C@@H](Cc1ccccc1OCc1ccnn1C(C)C)Oc1ncnc2sc(-c3ccc(F)o3)c(-c3ccc(OCCN4CCN(C)CC4)c(Cl)c3C)c12 [Example 623, ethyl (2R)-2-{[(5Sa)-5-{3-chloro-2-methyl-4-[2-(4-methylpiperazin-1-yl)ethoxy]phenyl}-6-(5-fluorofuran-2-yl)thieno[2,3-d]pyrimidin-4-yl]oxy}-3-(2-{[1-(propan-2-yl)-1H-pyrazol-5-yl]methoxy}phenyl)propanoate]	441.5			percentage fluorescence polarisation inhibition, Mcl-1 FP [3]: 67.8% @ 10 uM
CCOC(=O)[C@@H](Cc1ccccc1OCc1ccnc(OCC(F)(F)F)n1)Oc1ncnc2sc(-c3ccc(F)cc3)c(-c3ccc(OCCN4CCN(C)CC4)c(Cl)c3C)c12 [Example 638, ethyl (2R)-2-{[(5Sa)-5-{3-chloro-2-methyl-4-[2-(4-methylpiperazin-1-yl)ethoxy]phenyl}-6-(4-fluorophenyl)thieno[2,3-d]pyrimidin-4-yl]oxy}-3-(2-{[2-(2,2,2-trifluoroethoxy)pyrimidin-4-yl]methoxy}phenyl)propanoate]	136.7			percentage fluorescence polarisation inhibition, Mcl-1 FP [3]: 34.5% @ 10 uM
CCOC(=O)[C@@H](Cc1ccccc1OCc1ccnc(-c2ccccc2OC)n1)Oc1ncnc2sc(-c3ccc(F)cc3)c(-c3ccc(OCCN4CCN(C)CC4)c(Cl)c3C)c12 [Example 639, ethyl (2R)-2-{[(5Sa)-5-{3-chloro-2-methyl-4-[2-(4-methylpiperazin-1-yl)ethoxy]phenyl}-6-(4-fluorophenyl)thieno[2,3-d]pyrimidin-4-yl]oxy}-3-(2-{[2-(2-methoxyphenyl)pyrimidin-4-yl]methoxy}phenyl)propanoate]	195.7			percentage fluorescence polarisation inhibition, Mcl-1 FP [3]: 66.25% @ 10 uM
CCOC(=O)C(Cc1ccccc1OCc1ccnc(-c2ccccc2OC)n1)Oc1ncnc2sc(-c3ccc(F)cc3)c(-c3ccc(OCCN(C)C)c(Cl)c3C)c12 [Example 756, Ethyl (2R)-2-{[(5Sa)-5-{3-chloro-4-[2-(dimethylamino)ethoxy]-2-methylphenyl}-6-(4-fluorophenyl)thieno[2,3-d]pyrimidin-4-yl]oxy}-3-(2-{[2-(2-methoxyphenyl)pyrimidin-4-yl]methoxy}phenyl)propanoate]	117			IC50 [3, 5]: 6.89e-07 M
COc1ccccc1-c1nccc(COc2ccccc2CC(Oc2ncnc3sc(C#CCCCc4ccccc4)c(-c4ccc(OCCN5CCN(C)CC5)c(Cl)c4C)c23)C(=O)O)n1 [Example 783, (2R)-2-{[(5Sa)-5-{3-chloro-2-methyl-4-[2-(4-methylpiperazin-1-yl)ethoxy]phenyl}-6-(5-phenylpent-1-yn-1-yl)thieno[2,3-d]pyrimidin-4-yl]oxy}-3-(2-{[2-(2-methoxyphenyl)pyrimidin-4-yl]methoxy}phenyl)propanoic acid]				IC50 ([1]; MTT): 0.037 µM; IC50 [3, 5]: 1.06e-09 M
COCC#Cc1sc2ncnc(OC(Cc3ccccc3OCc3ccnc(-c4ccccc4OC)n3)C(=O)O)c2c1-c1ccc(OCCN2CCN(C)CC2)c(Cl)c1C [Example 784, (2R)-2-{[(5Sa)-5-{3-chloro-2-methyl-4-[2-(4-methylpiperazin-1-yl)ethoxy]phenyl}-6-(3-methoxyprop-1-yn-1-yl)thieno[2,3-d]pyrimidin-4-yl]oxy}-3-(2-{[2-(2-methoxyphenyl)pyrimidin-4-yl]methoxy}phenyl)propanoic acid]				IC50 ([1]; MTT): 0.023 µM; IC50 [3, 5]: 9.48e-10 M
CCOC(=O)C(Cc1ccccc1OCc1ccnc(-c2ccccc2F)n1)Oc1ncnc2sc(-c3ccc(F)cc3)c(-c3ccc(OCCN4CCN(CC)CC4)c(Cl)c3C)c12 [Example 790, ethyl (2R)-2-{[(5Sa)-5-{3-chloro-4-[2-(4-ethylpiperazin-1-yl)ethoxy]-2-methylphenyl}-6-(4-fluorophenyl)thieno[2,3-d]pyrimidin-4-yl]oxy}-3-(2-{[2-(2-fluorophenyl)pyrimidin-4-yl]methoxy}phenyl)propanoate]	282.9			IC50 [3, 5]: 1.91e-06 M
CCOC(=O)C(Cc1ccccc1OCc1ccnn1C(C)(C)C)Oc1ncnc2sc(-c3ccc(F)cc3)c(-c3ccc(OCCN(C)C)c(Cl)c3C)c12 [Example 794, ethyl (2R)-3-{2-[(1-tert-butyl-1H-pyrazol-5-yl)methoxy]phenyl}-2-{[(5Sa)-5-{3-chloro-4-[2-(dimethylamino)ethoxy]-2-methylphenyl}-6-(4-fluorophenyl)thieno[2,3-d]pyrimidin-4-yl]oxy}propanoate]	125.6	5.35e-06		
COc1ccccc1-c1nccc(COc2ccccc2CC(Oc2ncnc3sc(-c4ccc(F)cc4)c(-c4ccc(OCCN5CCN(C)CC5)c(Cl)c4C)c23)C(=O)Oc2ccc3c(c2)CCC3)n1 [Example 809, 2,3-dihydro-1H-inden-5-yl (2R)-2-{[(5Sa)-5-{3-chloro-2-methyl-4-[2-(4-methylpiperazin-1-yl)ethoxy]phenyl}-6-(4-fluorophenyl)thieno[2,3-d]pyrimidin-4-yl]oxy}-3-(2-{[2-(2-methoxyphenyl)pyrimidin-4-yl]methoxy}phenyl)propanoate]		6.91e-07	0.047	
COc1ccccc1-c1nccc(COc2ccccc2CC(Oc2ncnc3sc(-c4ccc(F)cc4)c(-c4ccc(OCCN5CCN(C)CC5)c(Cl)c4C)c23)C(=O)OCCN(C)C)n1 [Example 813, 2-(dimethylamino)ethyl (2R)-2-{[(5Sa)-5-{3-chloro-2-methyl-4-[2-(4-methylpiperazin-1-yl)ethoxy]phenyl}-6-(4-fluorophenyl)thieno[2,3-d]pyrimidin-4-yl]oxy}-3-(2-{[2-(2-methoxyphenyl)pyrimidin-4-yl]methoxy}phenyl)propanoate]		5.47e-09	0.011	
Cc1c(-c2c(-c3ccc(F)cc3)sc3ncnc(OC(Cc4ccccc4OCc4ccnc(-c5ccccc5CO)n4)C(=O)O)c23)ccc(OCCN(C)C)c1Cl [Example 832, (2R)-2-{[(5Sa)-5-{3-chloro-4-[2-(dimethylamino)ethoxy]-2-methylphenyl}-6-(4-fluorophenyl)thieno[2,3-d]pyrimidin-4-yl]oxy}-3-[2-({2-[2-(hydroxymethyl)phenyl]pyrimidin-4-yl}methoxy)phenyl]propanoic acid]		3.15e-09	0.004	
COc1ccccc1-c1nccc(COc2ccccc2CC(Oc2ncnc3sc(-c4ccccc4F)c(-c4ccc(OCCN5CCN(C)CC5)c(Cl)c4C)c23)C(=O)O)n1 [Example 835, (2R)-2-{[(5Sa)-5-{3-chloro-2-methyl-4-[2-(4-methylpiperazin-1-yl)ethoxy]phenyl}-6-(2-fluorophenyl)thieno[2,3-d]pyrimidin-4-yl]oxy}-3-(2-{[2-(2-methoxyphenyl)pyrimidin-4-yl]methoxy}phenyl)propanoic acid]		2.9e-09	0.002	
COc1ccccc1-c1nccc(COc2ccccc2CC(Oc2ncnc3sc(-c4cccc(F)c4)c(-c4ccc(OCCN5CCN(C)CC5)c(Cl)c4C)c23)C(=O)O)n1 [Example 836, (2R)-2-{[(5Sa)-5-{3-chloro-2-methyl-4-[2-(4-methylpiperazin-1-yl)ethoxy]phenyl}-6-(3-fluorophenyl)thieno[2,3-d]pyrimidin-4-yl]oxy}-3-(2-{[2-(2-methoxyphenyl)pyrimidin-4-yl]methoxy}phenyl)propanoic acid]		2.8e-09	0.002	
COc1ccccc1-c1nccc(COc2ccccc2C[C@@H](Oc2ncnc3sc(-c4ccc(F)cc4)c(-c4ccc(OCCN5CCN(C)CC5)c(Cl)c4OC)c23)C(=O)O)n1 [Example 837, (2R)-2-{[5-{3-chloro-2-methoxy-4-[2-(4-methylpiperazin-1-yl)ethoxy]phenyl}-6-(4-fluorophenyl)thieno[2,3-d]pyrimidin-4-yl]oxy}-3-(2-{[2-(2-methoxyphenyl)pyrimidin-4-yl]methoxy}phenyl)propanoic acid]		2.35e-09	0.003	
